Two compounds from US20110071165A1, “Aza- and polyazanthranyl amides and their use as medicaments” (NOVARTIS AG, priority 2000, published 2011) can be followed below.

pIC50: −log10 of the molar value.

This test addresses VEGFR II (KDR) kinase (Homo sapiens, UniProt P35968). As to the kind of experiment: Inhibition of KDR kinase activity (33P-ATP incorporation into poly-(Glu4Tyr), phosphocellulose filter). The test is classed as biochemical. The note with it: 10 minutes at room temperature; substrate poly-(Glu4Tyr). On the procedure: Stock solutions Stock solution A: 3 mM ATP in water pH 7.0 (−70° C.) Stock solution B: g-33P-ATP 1mCi/100 μl Stock solution C: poly-(Glu4Tyr) 10 mg/ml in water
• Substrate solvent: 10 mM DTT, 10 mM manganese chloride 100 mM magnesium chloride • Enzyme solution: 120 mM Tris/HCl, pH 7,5, 10 μM sodium vanadium oxide
10 μl of substrate mix [10 μl vol ATP stock solution A+25 μCi g-33P-ATP (ca. 2.5 μl of stock solution B)+30 μl poly-(Glu4Tyr) stock solution C+1.21 ml substrate solvent], 10 μl inhibitor solution [substances corresponding to the dilutions, as a control 3% DMSO in substrate solvent] and 10 μl enzyme solution [11.25 μg enzyme stock solution (KDR or FLT-1 kinase) are diluted at 4° C. in 1.25 ml enzyme solution], are added to a tapering microtitre plate (without protein binding). The mixture is mixed thoroughly and incubated for 10 minutes at room temperature. Subsequently, 10 μl of stop solution (250 mM EDTA, pH 7.0) is added, mixed and 10 μl of the solution transferred to a P 81 phosphocellulose filter. Is is subsequently washed several times in 0.1 M phosphoric acid. The filter paper is dried, coated with MeltiLex and measured in a MicroBeta counter.
The IC50 values are determined from the concentration of inhibitor required to inhibit the phosphate incorporation to 50% of the uninhibited incorporation after deducting the reference value (EDTA-stopped reaction).

VEGFR II (KDR) kinase, sequence (P35968 20-1356, species assumed): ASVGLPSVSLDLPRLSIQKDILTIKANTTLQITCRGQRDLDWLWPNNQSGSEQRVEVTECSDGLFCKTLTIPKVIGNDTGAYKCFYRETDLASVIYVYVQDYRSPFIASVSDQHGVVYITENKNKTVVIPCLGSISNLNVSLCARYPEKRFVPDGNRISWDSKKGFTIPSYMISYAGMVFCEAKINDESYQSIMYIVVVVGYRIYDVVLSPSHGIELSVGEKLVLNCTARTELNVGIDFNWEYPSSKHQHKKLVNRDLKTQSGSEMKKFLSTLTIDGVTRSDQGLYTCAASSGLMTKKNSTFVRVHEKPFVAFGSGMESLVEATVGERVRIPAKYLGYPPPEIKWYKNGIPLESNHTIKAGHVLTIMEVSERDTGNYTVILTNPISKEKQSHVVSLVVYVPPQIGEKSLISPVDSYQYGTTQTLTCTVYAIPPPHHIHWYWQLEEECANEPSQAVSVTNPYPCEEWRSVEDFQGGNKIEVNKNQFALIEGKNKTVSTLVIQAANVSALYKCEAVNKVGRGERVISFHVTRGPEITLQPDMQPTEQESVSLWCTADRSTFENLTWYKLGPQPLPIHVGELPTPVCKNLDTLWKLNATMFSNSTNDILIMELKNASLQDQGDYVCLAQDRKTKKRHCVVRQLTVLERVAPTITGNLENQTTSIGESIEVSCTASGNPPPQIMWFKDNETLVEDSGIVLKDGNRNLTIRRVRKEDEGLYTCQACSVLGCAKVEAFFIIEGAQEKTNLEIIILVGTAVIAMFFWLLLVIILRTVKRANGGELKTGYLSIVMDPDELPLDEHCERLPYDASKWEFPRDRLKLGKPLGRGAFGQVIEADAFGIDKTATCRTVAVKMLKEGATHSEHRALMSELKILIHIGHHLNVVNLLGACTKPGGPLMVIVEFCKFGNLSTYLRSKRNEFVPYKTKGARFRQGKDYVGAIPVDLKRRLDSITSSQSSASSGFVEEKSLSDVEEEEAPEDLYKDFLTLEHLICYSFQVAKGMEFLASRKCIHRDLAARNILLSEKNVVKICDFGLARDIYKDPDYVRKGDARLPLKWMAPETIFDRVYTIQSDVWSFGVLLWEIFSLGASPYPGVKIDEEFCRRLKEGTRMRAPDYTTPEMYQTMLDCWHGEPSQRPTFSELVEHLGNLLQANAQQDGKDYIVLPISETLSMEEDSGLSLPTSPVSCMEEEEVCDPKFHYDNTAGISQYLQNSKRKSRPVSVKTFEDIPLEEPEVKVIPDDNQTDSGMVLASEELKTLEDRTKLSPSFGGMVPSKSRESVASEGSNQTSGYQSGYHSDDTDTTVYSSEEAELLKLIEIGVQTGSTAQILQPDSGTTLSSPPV

The compound `O=C(Nc1cccc(C(F)(F)F)c1)c1cncnc1NCc1ccncc1` [Example 2.1] had a pIC50 of 6.70. As to `O=C(Nc1cc2ccccc2cn1)c1cncnc1NCc1ccncc1` [Example 2.0, N-isoquinolin-3-yl-4-[(4-pyridyl)methyl]amino-pyrimidine-5-carboxylic acid amide], the negative-log IC50 (pIC50) was 7.00.

For orientation: pIC50 means the negative decadic logarithm of the IC50, by convention in mol/L. A higher pIC50 goes with a small IC50.
